According to patent publication US8415272B2, “Quinoline derivatives and their use as fungicides” (Syngenta Crop Protection LLC, priority 2008, dated 2013):

Assays:
[1] = test system: Erysiphe graminis f.sp. tritici; assay: Leaf disk assay, Erysiphe graminis f.sp. tritici (wheat powdery mildew), preventive; format: in vivo; settings: Blumeria graminis, foliar, 96 h, wheat leaf segments, assessed four days after inoculation, read-out: control of fungal infection, Erysiphe graminis f.sp. tritici
Experimental: The compounds were tested in a leaf disk assay, with methods described below. The test compounds were dissolved in DMSO and diluted into water to 200 ppm. In the case of the test on Pythium ultimum, they were dissolved in DMSO and diluted into water to 20 […] graminis f.sp. tritici (wheat powdery mildew): Wheat leaf segments were placed on agar in a 24-well plate and sprayed with a solution of the test compound. After allowing to dry completely, for between 12 and 24 hours, the leaf disks were inoculated with a spore suspension of the fungus. After appropriate incubation the activity of a compound was assessed four days after inoculation as preventive fungicidal activity.

Plasmopara viticola = assay: Leaf disk assay, Plasmopara viticola (downy mildew of grapevine), preventive; format: in vivo; settings: foliar, 168 h, grapevine leaf disks, assessed seven days after inoculation, read-out: control of fungal infection, Plasmopara viticola
Pythium ultimum = assay: Growth inhibition in potato dextrose broth, Pythium ultimum (damping off), photometric; format: cell-based; settings: Globisporangium ultimum, 24° C., 48 hours, read-out: control of fungal infection, Pythium ultimum
Experimental: The compounds were tested in a leaf disk assay, with methods described below. The test compounds were dissolved in DMSO and diluted into water to 200 ppm. In the case of the test on Pythium ultimum, they were dissolved in DMSO and diluted into water to 20 ppm. Pythium ultimum (Damping off): Mycelial fragments of the fungus, prepared from a fresh liquid culture, were mixed into potato dextrose broth. A solution of the test compound in dimethyl sulphoxide was diluted with water to 20 ppm then placed into a 96-well microtiter plate and the nutrient broth containing the fungal spores was added. The test plate was incubated at 24° C. and the inhibition of growth was determined photometrically after 48 hours.

Septoria tritici = assay: Growth inhibition in nutrient broth, Septoria tritici (leaf blotch), photometric; format: cell-based; settings: Zymoseptoria tritici, PDB broth, 24 C, 72 hrs, read-out: control of fungal infection, Septoria tritici
Phytophthora infestans = assay: whole plant or invertebrate; format: in vivo; settings: in Solanum lycopersicum, foliar, 96 h, read-out: control of fungal infection, Phytophthora infestans
[2] = test system: Puccinia recondita f.sp. tritici; assay: Leaf disk assay, Puccinia recondita f.sp. tritici (wheat brown rust), preventive; format: in vivo; settings: foliar, 216 h, wheat leaf segments, assessed nine days after inoculation, read-out: control of fungal infection, Puccinia recondita f.sp. tritici
Septoria nodorum = assay: Leaf disk assay, Septoria nodorum (wheat glume blotch), preventive; format: in vivo; settings: Parastagonospora nodorum, foliar, 96 h, wheat leaf segments, assessed four days after inoculation, read-out: control of fungal infection, Septoria nodorum

COCC(C)(C#N)NC(=O)C(Oc1cc(C)c2ncc(C#CCO)cc2c1)SC (stereo not drawn) [Example 27]
≥ 60%: pest or weed control at 200 ppm [1] | pest or weed control at 200 ppm (Plasmopara viticola) | inhibition of growth at 20 ppm (Pythium ultimum)

COCC#Cc1cnc2c(C)cc(OC(SC)C(=O)NC(C)(C#N)COC)cc2c1 (stereo not drawn) [Example 33]
≥ 60%: inhibition of growth at 60 ppm (Septoria tritici) | pest or weed control at 200 ppm (Phytophthora infestans) | inhibition of growth at 20 ppm (Pythium ultimum)

CC#Cc1cnc2c(C)cc(OC(SC)C(=O)NC(C)(C#N)COC)cc2c1 (stereo not drawn) [Example 38]
≥ 60%: inhibition of growth at 60 ppm (Septoria tritici) | pest or weed control at 200 ppm [1] | inhibition of growth at 20 ppm (Pythium ultimum)

COCC#Cc1cnc2ccc(OC(SC)C(=O)NC(C)(C#N)COC)cc2c1 (stereo not drawn) [Example 43]
≥ 60%: pest or weed control at 200 ppm (Phytophthora infestans) | pest or weed control at 200 ppm [1] | inhibition of growth at 20 ppm (Pythium ultimum)

C#CC(C)(C)NC(=O)C(Oc1ccc2ncc(C#CCOC)cc2c1)SC (stereo not drawn) [Example 46]
≥ 60%: inhibition of growth at 60 ppm (Septoria tritici) | pest or weed control at 200 ppm (Phytophthora infestans) | pest or weed control at 200 ppm [1] | inhibition of growth at 20 ppm (Pythium ultimum)

COCC#CC(C)(C)NC(=O)C(Oc1ccc2ncc(C#CCO)cc2c1)SC (stereo not drawn) [Example 49]
≥ 60%: pest or weed control at 200 ppm (Phytophthora infestans) | pest or weed control at 200 ppm (Plasmopara viticola) | inhibition of growth at 20 ppm (Pythium ultimum) | pest or weed control at 200 ppm [2]

CC#CC(C)(C)NC(=O)C(Oc1ccc2ncc(C#CCO)cc2c1)SC (stereo not drawn) [Example 50]
≥ 60%: pest or weed control at 200 ppm (Phytophthora infestans) | pest or weed control at 200 ppm (Plasmopara viticola) | inhibition of growth at 20 ppm (Pythium ultimum)

C#CC(C)(C)NC(=O)C(Oc1ccc2ncc(C#CCO)cc2c1)SC (stereo not drawn) [Example 51]
≥ 60%: pest or weed control at 200 ppm (Phytophthora infestans) | pest or weed control at 200 ppm (Plasmopara viticola) | inhibition of growth at 20 ppm (Pythium ultimum)

CC#Cc1cnc2ccc(OC(SC)C(=O)NC(C)(C#N)COC)cc2c1 (stereo not drawn) [Example 53]
≥ 60%: inhibition of growth at 60 ppm (Septoria tritici) | pest or weed control at 200 ppm (Phytophthora infestans) | inhibition of growth at 20 ppm (Pythium ultimum) | pest or weed control at 200 ppm (Septoria nodorum)

C#Cc1cnc2ccc(OC(SC)C(=O)NC(C)(C#N)CSC)cc2c1 (stereo not drawn) [Example 67]
≥ 60%: inhibition of growth at 60 ppm (Septoria tritici) | pest or weed control at 200 ppm (Phytophthora infestans) | pest or weed control at 200 ppm [1] | pest or weed control at 200 ppm (Plasmopara viticola) | inhibition of growth at 20 ppm (Pythium ultimum) | pest or weed control at 200 ppm [2]

COCCC(C)(C)NC(=O)C(Oc1ccc2ncc(C#C[Si](C)(C)C)cc2c1)SC (stereo not drawn) [Example 78]
≥ 60%: inhibition of growth at 60 ppm (Septoria tritici) | pest or weed control at 200 ppm (Phytophthora infestans) | pest or weed control at 200 ppm [1] | pest or weed control at 200 ppm (Plasmopara viticola) | pest or weed control at 200 ppm (Septoria nodorum)

COCC(C)(COC)NC(=O)C(Oc1ccc2ncc(C#C[Si](C)(C)C)cc2c1)SC (stereo not drawn) [Example 81]
≥ 60%: inhibition of growth at 60 ppm (Septoria tritici) | pest or weed control at 200 ppm (Phytophthora infestans) | pest or weed control at 200 ppm (Septoria nodorum)

C#Cc1cnc2ccc(OC(SC)C(=O)NC3(C#N)CCC3)cc2c1 (stereo not drawn) [Example 83]
≥ 60%: inhibition of growth at 60 ppm (Septoria tritici) | pest or weed control at 200 ppm (Phytophthora infestans) | pest or weed control at 200 ppm [1] | pest or weed control at 200 ppm (Plasmopara viticola) | pest or weed control at 200 ppm [2] | pest or weed control at 200 ppm (Septoria nodorum)

C#Cc1cnc2ccc(OC(SC)C(=O)NC)cc2c1 (stereo not drawn) [Example 96]
≥ 60%: inhibition of growth at 60 ppm (Septoria tritici) | pest or weed control at 200 ppm (Phytophthora infestans) | pest or weed control at 200 ppm [1] | pest or weed control at 200 ppm (Plasmopara viticola) | inhibition of growth at 20 ppm (Pythium ultimum) | pest or weed control at 200 ppm (Septoria nodorum)

COCCC#CC(C)(C)NC(=O)C(Oc1ccc2ncc(C#C[Si](C)(C)C)cc2c1)SC (stereo not drawn) [Example 100]
≥ 60%: inhibition of growth at 60 ppm (Septoria tritici) | pest or weed control at 200 ppm (Phytophthora infestans) | pest or weed control at 200 ppm [1] | pest or weed control at 200 ppm (Plasmopara viticola) | inhibition of growth at 20 ppm (Pythium ultimum)

C#Cc1cnc2ccc(OC(SC)C(=O)NC(C)(C)C#CCCOC)cc2c1 (stereo not drawn) [Example 103]
≥ 60%: pest or weed control at 200 ppm (Phytophthora infestans) | pest or weed control at 200 ppm [1] | pest or weed control at 200 ppm (Plasmopara viticola) | pest or weed control at 200 ppm [2] | pest or weed control at 200 ppm (Septoria nodorum)

C#Cc1cnc2c(Cl)cc(OC(SC)C(=O)NC(C)(C#CC)CC)cc2c1 (stereo not drawn) [Example 121]
≥ 60%: inhibition of growth at 60 ppm (Septoria tritici) | pest or weed control at 200 ppm (Phytophthora infestans) | pest or weed control at 200 ppm [1] | pest or weed control at 200 ppm (Plasmopara viticola) | inhibition of growth at 20 ppm (Pythium ultimum) | pest or weed control at 200 ppm (Septoria nodorum)

C#Cc1cnc2ccc(OC(OC)C(=O)NC(C)(C#N)COC)cc2c1 (stereo not drawn) [Example 128]
≥ 60%: inhibition of growth at 60 ppm (Septoria tritici) | pest or weed control at 200 ppm (Phytophthora infestans) | pest or weed control at 200 ppm [1] | pest or weed control at 200 ppm (Plasmopara viticola) | inhibition of growth at 20 ppm (Pythium ultimum) | pest or weed control at 200 ppm (Septoria nodorum)

C#Cc1cnc2ccc(OC(SC)C(=O)NC3(CO)CCC3)cc2c1 (stereo not drawn) [Example 148]
≥ 60%: inhibition of growth at 60 ppm (Septoria tritici) | pest or weed control at 200 ppm (Phytophthora infestans) | pest or weed control at 200 ppm [1] | pest or weed control at 200 ppm (Plasmopara viticola) | pest or weed control at 200 ppm [2]

C#Cc1cnc2ccc(OC(SC)C(=O)NC3(C=O)CCC3)cc2c1 (stereo not drawn) [Example 150]
≥ 60%: pest or weed control at 200 ppm (Phytophthora infestans) | pest or weed control at 200 ppm [1] | pest or weed control at 200 ppm (Plasmopara viticola) | pest or weed control at 200 ppm (Septoria nodorum)

C#CCOCC1(NC(=O)C(Oc2ccc3ncc(C#C)cc3c2)SC)CCC1 (stereo not drawn) [Example 152]
≥ 60%: inhibition of growth at 60 ppm (Septoria tritici) | pest or weed control at 200 ppm (Phytophthora infestans) | pest or weed control at 200 ppm [1] | pest or weed control at 200 ppm (Plasmopara viticola) | pest or weed control at 200 ppm (Septoria nodorum)

C#Cc1cnc2ccc(OC(SC)C(=O)NC3(C(OC)OC)CCC3)cc2c1 (stereo not drawn) [Example 153]
≥ 60%: inhibition of growth at 60 ppm (Septoria tritici) | pest or weed control at 200 ppm (Phytophthora infestans) | pest or weed control at 200 ppm [1] | pest or weed control at 200 ppm (Plasmopara viticola) | inhibition of growth at 20 ppm (Pythium ultimum) | pest or weed control at 200 ppm (Septoria nodorum)

C#Cc1cnc2ccc(OC(OC)C(=O)NC(C)(C#C)COC)cc2c1 (stereo not drawn) [Example 155]
≥ 60%: pest or weed control at 200 ppm [1] | pest or weed control at 200 ppm [2] | pest or weed control at 200 ppm (Septoria nodorum)

C#Cc1cnc2ccc(OC(SC)C(=O)NC(C)(C#C)C=O)cc2c1 (stereo not drawn) [Example 161]
≥ 60%: pest or weed control at 200 ppm (Phytophthora infestans) | pest or weed control at 200 ppm (Plasmopara viticola) | inhibition of growth at 20 ppm (Pythium ultimum)

C#Cc1cnc2ccc(OC(SC)C(=O)NC(C)(C#C)CO)cc2c1 (stereo not drawn) [Example 173]
≥ 60%: pest or weed control at 200 ppm (Phytophthora infestans) | pest or weed control at 200 ppm [1] | pest or weed control at 200 ppm (Plasmopara viticola) | inhibition of growth at 20 ppm (Pythium ultimum) | pest or weed control at 200 ppm (Septoria nodorum)

C#Cc1cnc2ccc(OC(SC)C(=O)NCCO)cc2c1 (stereo not drawn) [Example 194]
≥ 60%: pest or weed control at 200 ppm (Phytophthora infestans) | pest or weed control at 200 ppm (Plasmopara viticola) | inhibition of growth at 20 ppm (Pythium ultimum) | pest or weed control at 200 ppm (Septoria nodorum)

C#Cc1cnc2c(F)c(F)c(OC(SC)C(=O)NC(C)(C)C#CCOC)cc2c1 (stereo not drawn) [Example 215]
≥ 60%: inhibition of growth at 60 ppm (Septoria tritici) | pest or weed control at 200 ppm (Phytophthora infestans) | pest or weed control at 200 ppm [1] | pest or weed control at 200 ppm (Plasmopara viticola) | inhibition of growth at 20 ppm (Pythium ultimum) | pest or weed control at 200 ppm [2]

C#Cc1cnc2ccc(OC(OC)C(=O)NC(C)(C)CO)cc2c1 (stereo not drawn) [Example 220]
≥ 60%: inhibition of growth at 60 ppm (Septoria tritici) | pest or weed control at 200 ppm (Phytophthora infestans) | pest or weed control at 200 ppm [1] | pest or weed control at 200 ppm (Plasmopara viticola) | inhibition of growth at 20 ppm (Pythium ultimum)

C#Cc1cnc2ccc(OC(OC)C(=O)NC(C)(C)C=O)cc2c1 (stereo not drawn) [Example 221]
≥ 60%: inhibition of growth at 60 ppm (Septoria tritici) | pest or weed control at 200 ppm (Phytophthora infestans) | pest or weed control at 200 ppm [1] | pest or weed control at 200 ppm (Plasmopara viticola) | inhibition of growth at 20 ppm (Pythium ultimum)
